≈ marks a conversion by molar mass, not a printed value. Calls of active or inactive are those of the source. The rule behind the calls is not given here.
Tests used:
Mus musculus [1] = experiment: Toxicity in BALB/c mouse assessed as liver function at 10 mg/kg, po; format: organism-based; design: dose 10 mg/kg, route oral; details: in vivo
Leishmania donovani [2] = experiment: Antileishmanial activity against Leishmania donovani MHOH/IN/1983/AD83 promastigotes assessed as cell killing at 30 ug/mL after 2 hrs by MTT assay relative to control; format: functional
Leishmania donovani [3] = experiment: Antileishmanial activity against Leishmania donovani MHOH/IN/1983/AD83 promastigotes assessed as decrease in rate of oxygen consumption at 30 ug/mL after 2 hrs by polarographically with Clark electrode; format: functional; design: scale not given: the % may be the effect or the level left
[4] = Toxicity in BALB/c mouse peritoneal macrophage assessed as toxic dose; format: cell-based; details: peritoneal macrophage cell
Leishmania donovani [5] = experiment: Antileishmanial activity against Leishmania donovani MHOH/IN/1983/AD83 promastigotes assessed as growth inhibition after 3 days by MTT assay; format: functional, organism-based; details: MHOH/IN/1983/AD83, 72 h
Mus musculus [6] = experiment: Toxicity in BALB/c mouse assessed as heart function at 10 mg/kg, po; format: organism-based; design: dose 10 mg/kg, route oral; details: in vivo
Leishmania donovani [7] = experiment: Antileishmanial activity against Leishmania donovani MHOH/IN/1983/AD83 amastigotes infected in BALB/c mouse peritoneal macrophage at 3 ug/mL treated 6 hrs after infection measured after 48 hrs using Giemsa staining relative to control; format: functional
Leishmania donovani [8] = experiment: Antileishmanial activity against Leishmania donovani MHOH/IN/1983/AD83 promastigotes assessed as viability after 2 hrs by MTT assay; format: functional, organism-based; details: MHOH/IN/1983/AD83, 2 h
Leishmania donovani [9] = experiment: Antileishmanial activity against Leishmania donovani MHOH/IN/1983/AD83 promastigotes assessed as inhibition of calcium uptake; format: functional, organism-based
Leishmania donovani [10] = experiment: Antileishmanial activity against Leishmania donovani MHOH/IN/1983/AD83 amastigotes infected in BALB/c mouse peritoneal macrophage treated 6 hrs after infection measured after 48 hrs using Giemsa staining relative to control; format: functional, organism-based
Leishmania donovani [11] = experiment: Antileishmanial activity against Leishmania donovani MHOH/IN/1983/AD83 amastigotes infected in BALB/c mouse peritoneal macrophage assessed as cell killing at 15 ug/mL treated 6 hrs after infection measured after 48 hrs using Giemsa staining relative to control; format: functional
Mus musculus [12] = experiment: Toxicity in BALB/c mouse assessed as kidney function at 10 mg/kg, po; format: organism-based; design: dose 10 mg/kg, route oral; details: in vivo
Mus musculus [13] = experiment: Toxicity in BALB/c mouse at 10 mg/kg, po; format: organism-based; design: dose 10 mg/kg, route oral; details: in vivo
Leishmania donovani [14] = experiment: Antileishmanial activity against Leishmania donovani MHOH/IN/1983/AD83 promastigotes assessed as increase in caspase 3 like activation in parasite cytosol at 3 to 30 ug/mL after 2 hrs by spectrofluorimetric analysis; format: functional, organism-based

Row | SMILES | Activity (Mus musculus [1]) | Activity (Leishmania donovani [2]) | Activity (Leishmania donovani [3]) | Activity [4] | IC50 (Leishmania donovani [5]) | Activity (Mus musculus [6]) | Activity (Leishmania donovani [7]) | EC50 (Leishmania donovani [8]) | Activity (Leishmania donovani [9]) | Activity (Leishmania donovani [10]) | IC50 (Leishmania donovani [10]) | Activity (Leishmania donovani [11]) | Activity (Mus musculus [12]) | Activity (Mus musculus [13]) | Activity (Leishmania donovani [14])
1 | CCOC(=O)C1=C(C)NC(C)=C(C(=O)OCC)C1c1ccccc1/C=C/C(=O)OC(C)(C)C [LACIDIPINE] | Non-toxic | 90.5% | 78% | 150 µg/mL | 1.45 µg/mL (≈ 3.18 µM) | Non-toxic | >50% | 2.5 µg/mL (≈ 5.49 µM) | Active | Dose-dependent effect | 2.8 µg/mL (≈ 6.15 µM) | 85.66% | Non-toxic | Non-toxic | Active
2 | CCOC(=O)C1=C(COCCN)NC(C)=C(C(=O)OC)C1c1ccccc1Cl (stereo unspecified) [AMLODIPINE] | Non-toxic | 98.76% | – | > 100 µg/mL | 0.085 µg/mL (≈ 0.208 µM) | Non-toxic | >50% | 2 µg/mL (≈ 4.89 µM) | Active | Dose-dependent effect | 2.1 µg/mL (≈ 5.14 µM) | 96.39% | Non-toxic | Non-toxic | Active
3 | COc1ccc([C@@H]2Sc3ccccc3N(CCN(C)C)C(=O)[C@@H]2OC(C)=O)cc1 | – | – | – | – | – | – | – | – | Active | – | – | – | – | – | –
4 | COc1ccc(CCN(C)CCCC(C#N)(c2ccc(OC)c(OC)c2)C(C)C)cc1OC (stereo unspecified) | – | – | – | – | – | – | – | – | Active | – | – | – | – | – | –

From ChEMBL document CHEMBL1152463 (Antimicrob Agents Chemother, 2008)
